Tests used:
[1] = compound: CNc1nc(-c2ccc3c(N)n[nH]c3c2)cc(N2C[C@@H](C(=O)NC3CCCCC3)CC[C@H]2C)n1
THZ-P1-2 = compound: CN(C)C/C=C/C(=O)NC1=CC=C(C=C1)C(=O)NC2=CC=CC(=C2)NC3=NC=NC(=C3)C4=CNC5=CC=CC=C54 [THZ-P1-2]
Tivantinib/ARQ197 = compound: O=C1NC(=O)[C@@H](c2cn3c4c(cccc24)CCC3)[C@@H]1c1c[nH]c2ccccc12 [Tivantinib/ARQ197]
Paclitaxel = compound: CC(=O)O[C@H]1C(=O)[C@@]2(C)[C@H]([C@H](OC(=O)c3ccccc3)[C@]3(O)C[C@H](OC(=O)[C@H](O)[C@@H](NC(=O)c4ccccc4)c4ccccc4)C(C)=C1C3(C)C)[C@]1(OC(C)=O)CO[C@@H]1C[C@@H]2O [Paclitaxel]
INK128/MLN0128 = compound: CC(C)n1nc(-c2ccc3oc(N)nc3c2)c2c(N)ncnc21 [INK128/MLN0128]
Doxorubicin = compound: COc1cccc2c1C(=O)c1c(O)c3c(c(O)c1C2=O)C[C@@](O)(C(=O)CO)C[C@@H]3O[C@H]1C[C@H](N)[C@H](O)[C@H](C)O1 [Doxorubicin]
Luminespib/NVP-AUY922 = compound: CCNC(=O)c1noc(-c2cc(C(C)C)c(O)cc2O)c1-c1ccc(CN2CCOCC2)cc1 [Luminespib/NVP-AUY922]
BSJ-01-175 = compound: CN(C)C/C=C/C(=O)Nc1ccc(O[C@@H]2CCC[C@@H](Nc3ncc(Cl)c(-c4c[nH]c5ccccc45)n3)C2)cc1 [BSJ-01-175]
Dasatinib = compound: Cc1nc(Nc2ncc(C(=O)Nc3c(C)cccc3Cl)s2)cc(N2CCN(CCO)CC2)n1 [Dasatinib]
senexin b = compound: CN1CCN(C(=O)c2ccc3cc(CCNc4ncnc5ccc(C#N)cc45)ccc3c2)CC1 [senexin b]
AZD2014 = compound: CNC(=O)c1cccc(-c2ccc3c(N4CCOC[C@@H]4C)nc(N4CCOC[C@@H]4C)nc3n2)c1 [AZD2014]
Cabozantinib = compound: COc1cc2nccc(Oc3ccc(NC(=O)C4(C(=O)Nc5ccc(F)cc5)CC4)cc3)c2cc1OC [Cabozantinib]
Taselisib/GDC0032 = compound: Cc1nc(-c2cn3c(n2)-c2ccc(-c4cnn(C(C)(C)C(N)=O)c4)cc2OCC3)n(C(C)C)n1 [Taselisib/GDC0032]
AZD7762 = compound: NC(=O)Nc1cc(-c2cccc(F)c2)sc1C(=O)N[C@H]1CCCNC1 [AZD7762]
[2] = compound: Cc1nn(C)c(COc2ccc(N3CCN(S(=O)(=O)N(C)C)CC3)cc2)c1-c1cccc2c(CCCOc3cccc4ccccc34)c(C(=O)O)n(CCN3CCOCC3)c12
Neratinib/HKI272 = compound: CCOc1cc2ncc(C#N)c(Nc3ccc(OCc4ccccn4)c(Cl)c3)c2cc1NC(=O)/C=C/CN(C)C [Neratinib/HKI272]
Olaparib/AZD2281 = compound: O=C(c1cc(Cc2n[nH]c(=O)c3ccccc23)ccc1F)N1CCN(C(=O)C2CC2)CC1 [Olaparib/AZD2281]
Volasertib/BI6727 = compound: CC[C@@H]1C(=O)N(C)c2cnc(Nc3ccc(C(=O)N[C@H]4CC[C@H](N5CCN(CC6CC6)CC5)CC4)cc3OC)nc2N1C(C)C [Volasertib/BI6727]
Ipatasertib/GDC0068 = compound: CC(C)NC[C@@H](C(=O)N1CCN(c2ncnc3c2[C@H](C)C[C@H]3O)CC1)c1ccc(Cl)cc1 [Ipatasertib/GDC0068]
[3] = compound: CCC1=CN=CN=C1N2CCN(CC2)CC3=NC4=C(N3)C=C(C=C4)C(F)(F)F
[4] = compound: CCc1cnn2c(NCc3ccc[n+]([O-])c3)cc(N3CCCC[C@H]3CCO)nc12
ABT-737 = compound: CN(C)CC[C@H](CSc1ccccc1)Nc1ccc(S(=O)(=O)NC(=O)c2ccc(N3CCN(Cc4ccccc4-c4ccc(Cl)cc4)CC3)cc2)cc1[N+](=O)[O-] [ABT-737]
TGX221 = compound: CC1=CN2C(=O)C=C(N=C2C(=C1)C(C)NC3=CC=CC=C3)N4CCOCC4 [TGX221]
Buparlisib/NVP-BKM120 = compound: Nc1cc(C(F)(F)F)c(-c2cc(N3CCOCC3)nc(N3CCOCC3)n2)cn1 [Buparlisib/NVP-BKM120]
Pictilisib/GDC0941 = compound: CS(=O)(=O)N1CCN(Cc2cc3nc(-c4cccc5[nH]ncc45)nc(N4CCOCC4)c3s2)CC1 [Pictilisib/GDC0941]
Flavopiridol = compound: CN1CC[C@H](c2c(O)cc(O)c3c(=O)cc(-c4ccccc4Cl)oc23)[C@H](O)C1 [Flavopiridol]
[5] = compound: CC(=O)c1c(C)c2cnc(Nc3ccc(N4CCNCC4)cn3)nc2n(C2CCCC2)c1=O
Ceritinib/LDK378 = compound: Cc1cc(Nc2ncc(Cl)c(Nc3ccccc3S(=O)(=O)C(C)C)n2)c(OC(C)C)cc1C1CCNCC1 [Ceritinib/LDK378]
BSJ-03-123 = compound: CC(=O)c1c(C)c2cnc(Nc3ccc(N4CCN(CCOCCOCCOCCNC(=O)COc5cccc6c5C(=O)N(C5CCC(=O)NC5=O)C6=O)CC4)cn3)nc2n(C2CCCC2)c1=O [BSJ-03-123]
LEE011/Ribociclib = compound: CN(C)C(=O)c1cc2cnc(Nc3ccc(N4CCNCC4)cn3)nc2n1C1CCCC1 [LEE011/Ribociclib]
R0-3306 = compound: C1=CC2=C(C=CC(=C2)C=C3C(=O)NC(=NCC4=CC=CS4)S3)N=C1 [R0-3306]
Torin2 = compound: C1=CC(=CC(=C1)N2C(=O)C=CC3=CN=C4C=CC(=CC4=C32)C5=CN=C(C=C5)N)C(F)(F)F [Torin2]
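Note: breast cancer and non-malignant breast epithelial cell lines, Deep Dye Drop or Dye Drop imaging, nine half-log doses, GR normalized to time-zero plates and DMSO-only controls.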

Cell Line	GR50, 72 h [1]	GR50, 72 h (THZ-P1-2)	GR50, 72 h (Tivantinib/ARQ197)	GR50, 72 h (Paclitaxel)	GR50, 72 h (INK128/MLN0128)	GR50, 72 h (Doxorubicin)	GR50, 72 h (Luminespib/NVP-AUY922)	GR50, 72 h (BSJ-01-175)	GR50, 72 h (Dasatinib)	GR50, 72 h (senexin b)	GR50, 72 h (AZD2014)	GR50, 72 h (Cabozantinib)	GR50, 72 h (Taselisib/GDC0032)	GR50, 72 h (AZD7762)	GR50, 72 h [2]	GR50, 72 h (Neratinib/HKI272)	GR50, 72 h (Olaparib/AZD2281)	GR50, 72 h (Volasertib/BI6727)	GR50, 72 h (Ipatasertib/GDC0068)	GR50, 72 h [3]	GR50, 72 h [4]	GR50, 72 h (ABT-737)	GR50, 72 h (TGX221)	GR50, 72 h (Buparlisib/NVP-BKM120)	GR50, 72 h (Pictilisib/GDC0941)	GR50, 72 h (Flavopiridol)	GR50, 72 h [5]	GR50, 72 h (Ceritinib/LDK378)	GR50, 72 h (BSJ-03-123)	GR50, 72 h (LEE011/Ribociclib)	GR50, 72 h (R0-3306)	GR50, 72 h (Torin2)
SUM229PE	> 10 µM	5.54 µM	0.083 µM	0.00176 µM	0.047 µM	0.031 µM	0.00595 µM	0.0424 µM	0.094 µM	> 10 µM	0.0116 µM	6.79 µM	0.377 µM	0.0909 µM	> 10 µM	0.419 µM	> 10 µM	0.0135 µM	> 10 µM	> 10 µM	0.0141 µM	8.41 µM	> 10 µM	1.27 µM	3.92 µM	0.109 µM	0.956 µM	1.68 µM	1.64 µM	> 10 µM	6.23 µM	0.0523 µM
SUM1315	3.85 µM	7.11 µM	0.37 µM	0.00246 µM	0.00659 µM	0.0182 µM	0.00486 µM	0.419 µM	0.0191 µM	> 10 µM	0.0012 µM	4.52 µM	0.516 µM	0.0527 µM	> 10 µM	0.0922 µM	2.03 µM	0.0095 µM	> 10 µM	> 10 µM	0.0109 µM	5.96 µM	> 10 µM	0.402 µM	0.511 µM	0.104 µM	0.0923 µM	0.669 µM	2.05 µM	2.83 µM	2.79 µM	0.015 µM
T47D	0.48 µM	2.22 µM	0.346 µM	0.00353 µM	0.00526 µM	0.00189 µM	0.00607 µM	0.189 µM	> 10 µM	1.28 µM	< 0.001 µM	7.88 µM	0.00179 µM	2.37 µM	> 10 µM	0.423 µM	> 10 µM	0.0315 µM	0.136 µM	3.75 µM	0.0199 µM	> 10 µM	> 10 µM	0.248 µM	0.155 µM	0.116 µM	0.0275 µM	1.56 µM	0.00165 µM	0.0057 µM	7.12 µM	0.00602 µM
ZR751	5.91 µM	8.94 µM	0.657 µM	0.0088 µM	0.00782 µM	0.0247 µM	0.0228 µM	3.46 µM	0.0343 µM	> 10 µM	< 0.001 µM	> 10 µM	0.277 µM	2.29 µM	> 10 µM	> 3.16 µM	> 10 µM	0.115 µM	> 10 µM	> 10 µM	0.035 µM	> 10 µM	0.371 µM	1.15 µM	0.672 µM	0.35 µM	> 3.16 µM	3.79 µM	3.04 µM	5.42 µM	> 10 µM	0.0172 µM

From the supplement of paper PMC9663587
